Measurements taken from patent US20160102103A1, “SUBSTITUTED PYRIDINE COMPOUNDS HAVING HERBICIDAL ACTIVITY” (BASF SE, priority 2013, published 2016).

Assays:
Assay type in all cases: in vivo
Abutilon theophrasti = test: greenhouse post-emergence herbicidal test, ABUTH; details: scale from 0 to 100
Excerpt: (§1) The seeds of the test plants were sown separately for each species. For the post-emergence treatment, the test plants were first grown to a height of 3 to 15 cm, depending on the plant habit, and only then treated with the active ingredients which had been suspended or emulsified in water. For this purpose, the test plants were either sown directly and grown in the same containers, or they were first grown separately as seedlings and transplanted into the test containers a few days prior to treatment. Depending on the species, the plants were kept at 10-25° C. or 20-35° C., respectively. The test period extended over 2 to 4 weeks. During this time, the plants were tended, and their response to the individual treatments was evaluated. Evaluation was carried out using a scale from 0 to 100. 100 means no emergence of the plants, or complete destruction of at least the aerial moieties, and 0 means no damage, or normal course of growth. A good herbicidal activity is given at values of at least 70 and a very good herbicidal activity is given at values of at least 85. The plants used in the greenhouse experiments were of the following species: [table]

Capsella bursa-pastoris = test: greenhouse post-emergence herbicidal test, CAPBP; details: application rate 0.25 kg/ha, scale from 0 to 100
Excerpt: as §1

Setaria viridis = test: greenhouse post-emergence herbicidal test, SETVI; details: scale from 0 to 100
Excerpt: as §1

Echinocloa crus-galli = test: greenhouse post-emergence herbicidal test, ECHCG; details: scale from 0 to 100
Excerpt: as §1

Thlaspi arvense = test: greenhouse post-emergence herbicidal test, THLAR; details: application rate 0.25 kg/ha, scale from 0 to 100
Excerpt: as §1

Amaranthus retroflexus = test: greenhouse post-emergence herbicidal test, AMARE; details: application rate 0.271 kg/ha, scale from 0 to 100
Excerpt: as §1

Setaria faberi = test: greenhouse post-emergence herbicidal test, SETFA; details: application rate 0.125 kg/ha, scale from 0 to 100
Excerpt: as §1

Polygonum convolvulus = test: greenhouse post-emergence herbicidal test, POLCO; details: application rate 0.125 kg/ha, scale from 0 to 100
Excerpt: as §1

O=S1(=O)Cc2cccnc2C(O)=C1c1c(Cl)cncc1Cl [Compound I-1]
herbicidal activity against ABUTH (Abutilon theophrasti; application rate 0.25 kg/ha): very good herbicidal activity (a very good herbicidal activity is given at values of at least 85)

CC1c2cccnc2C(OC(=O)C(C)(C)C)=C(c2c(Cl)cnc(Cl)c2Cl)S1(=O)=O (stereo not shown) [Compound I-7]
herbicidal activity against CAPBP (Capsella bursa-pastoris): very good herbicidal activity (a very good herbicidal activity is given at values of at least 85)

CC(C)(C)C(=O)OC1=C(c2c(Cl)cnc(Cl)c2Cl)S(=O)(=O)C2(CC2)c2cccnc21 [Compound I-11]
herbicidal activity against SETVI (Setaria viridis; application rate 0.50 kg/ha): very good herbicidal activity (a very good herbicidal activity is given at values of at least 85)
herbicidal activity against ABUTH (Abutilon theophrasti; application rate 0.50 kg/ha): very good herbicidal activity (a very good herbicidal activity is given at values of at least 85)
herbicidal activity against ECHCG (Echinocloa crus-galli; application rate 0.50 kg/ha): very good herbicidal activity (a very good herbicidal activity is given at values of at least 85)

O=S1(=O)C(c2c(Cl)cnc(Cl)c2Cl)=C(O)c2ncccc2C12CC2 [Compound I-12]
herbicidal activity against THLAR (Thlaspi arvense): very good herbicidal activity (a very good herbicidal activity is given at values of at least 85)

COc1c(Cl)ncc(Cl)c1C1=C(OC(=O)C(C)(C)C)c2ncccc2CS1(=O)=O [Compound I-13]
herbicidal activity against SETVI (Setaria viridis; application rate 0.25 kg/ha): good herbicidal activity (A good herbicidal activity is given at values of at least 70)

COc1c(Cl)ncc(Cl)c1C1=C(O)c2ncccc2C(C)(C)S1(=O)=O [Compound I-16]
herbicidal activity against ABUTH (Abutilon theophrasti; application rate 0.125 kg/ha): very good herbicidal activity (a very good herbicidal activity is given at values of at least 85)

COc1c(Cl)ncc(Cl)c1C1=C(OC(=O)C(C)(C)C)c2ncccc2C2(CC2)S1(=O)=O [Compound I-19]
herbicidal activity against SETVI (Setaria viridis; application rate 0.271 kg/ha): very good herbicidal activity (a very good herbicidal activity is given at values of at least 85)
herbicidal activity against AMARE (Amaranthus retroflexus): very good herbicidal activity (a very good herbicidal activity is given at values of at least 85)
herbicidal activity against ABUTH (Abutilon theophrasti; application rate 0.271 kg/ha): very good herbicidal activity (a very good herbicidal activity is given at values of at least 85)

O=S1(=O)Cc2cccnc2C(O)=C1c1c(F)cnc(Cl)c1Br [Compound I-27]
herbicidal activity against ECHCG (Echinocloa crus-galli; application rate 0.25 kg/ha): very good herbicidal activity (a very good herbicidal activity is given at values of at least 85)

CC1(C)c2cccnc2C(O)=C(c2c(F)cnc(Cl)c2Br)S1(=O)=O [Compound I-28]
herbicidal activity against SETFA (Setaria faberi): very good herbicidal activity (a very good herbicidal activity is given at values of at least 85)

Cc1c(Cl)ncc(F)c1C1=C(O)c2ncccc2CS1(=O)=O [Compound I-36]
herbicidal activity against ECHCG (Echinocloa crus-galli; application rate 1.0 kg/ha): good herbicidal activity (A good herbicidal activity is given at values of at least 70)

CC1(C)c2cccnc2C(O)=C(c2c(Cl)cnc(Cl)c2F)S1(=O)=O [Compound I-39]
herbicidal activity against POLCO (Polygonum convolvulus): good herbicidal activity (A good herbicidal activity is given at values of at least 70)

O=S1(=O)Cc2cccnc2C(O)=C1c1c(Br)cnc(Cl)c1F [Compound I-40]
herbicidal activity against ECHCG (Echinocloa crus-galli; application rate 0.125 kg/ha): good herbicidal activity (A good herbicidal activity is given at values of at least 70)
